Test results taken from US20260083703A1, “INDOLINE DERIVATIVES AS SEROTONERGIC AGENTS USEFUL FOR THE TREATMENT OF DISORDERS RELATED THERETO” (MINDSET PHARMA INC., priority 2022, published 2026).
“And” between values parts separate entries of the source, which are not always exact repeats. Identical values can stand only once.

Key:
[1] = Liver microsomes stability, human; settings: human
Male, C57BL/6J mice = test: Mouse head twitch; assay type: in vivo
Method: The effect of different doses of representative compounds of Formula I are evaluated on head-twitch response (HTR) and other behavioural responses as behavior-based models of psychedelic activity.
Male, C57BL/6J mice (body weight range 20-30 g) were dosed with the appropriate dose of test article, and following a 1-minute pre-treatment time, placed in individual observation chambers. Animals were visually assessed for the incidence head twitches continuously over a 1 hr period. Head twitches were defined as a rapid jerk of the head which was not elicited by an external tactile stimulus (Come and Pickering, Psychopharmacologia, 1967, 11(1): 65-78). Each head twitch was individually counted by a trained observer, and the data expressed as the mean±SEM of 6-10 mice per group. Mice were used in a single experiment only.

[2] = Liver microsomes stability, mouse
[3] = target: T1, human 5-HT2A (h5-HT2A) receptor (Homo sapiens, UniProt P28223); test: FLIPR assay, human 5-HT2A, agonist mode; assay type: cell-based
T1 construct: expressed in transfected cells; grown under G418 and hygromycin B selection
Method: I. Assessment of the Effect of Exemplary Compounds of Formula I Targeting on Human 5-HT2A (h5-HT2A) Receptor Under Agonist Mode:
I.c. Experimental Methods and Procedures: • 1. Cells were cultured in cell culture medium (DMEM containing 10% FBS, 1×penicillin-streptomycin 300 μg/ml G418 and 100 μg/ml hygromycin B) at 37° C., 5% (v/v) CO2. • 2. One day before the assays, the cells were detached using TrypLE™ Express and cells were counted using cell counter. Only cells with >85% viability were used for the assay. • 3. 20000 cells/well were seeded in 30 μl/well culture medium to a 384-well cell plate and cells were incubated overnight at 37° C., 5% (v/v) CO2. • 4. On the assay day, 2×dye solution was prepared following the manual of the FLIPR® Calcium 6 Assay Kit: i. The dye was diluted with assay buffer (20 mM HEPES in 1×HBSS, PH7.4); ii. Probenecid was added to the final concentration of 5 mM; iii. Vortex vigorously for 1-2 minutes. • 5. Medium was removed from cell plate by flicking the cell plate on towel papers. • 6. 10 μl of assay buffer and 10 μl of 2×dye solution was added to each well of the cell plate. • 7. The cell plate was placed on plate shaker, the plate was agitated at 600 rpm for 2 minutes. The plate was incubated at 37° C. for 2 hours followed by additional 15-minute incubation at 25° C. • 8. 3×compound in assay buffer was prepared: a. Reference compounds were diluted to required concentration with DMSO. The compounds were added to a 384-well compound plate; b. Serial dilutions were performed; c. 10 mM test compounds were added to the compound plate, and 3-fold serial dilutions were performed. d. Transfer 60 nl/well of compounds from source plate to a 384-well compound plate (Corning, 3657) by using an Echo; e. Add 20 μl/well assay buffer to the compound plate; f. Mix the plate on plate shaker for 2 mins; • 9. The cell plate, compound plate and tips were put into FLIPR, 10 μl of 3× compound was transferred to the cell plate per well with FLIPR.
• i. The normalized fluorescence reading (RFU) was calculated as shown below, where Fmax and Fmin stand for maximum and minimum of calcium signal during defined time window: RFU=Fmax−Fmin. • ii. Calculate the percentage activation using following equation:
[formula] • Iii. Calculate EC50 by fitting % activation against log of compound concentrations with Hill equation using XLfit.

[4] = Liver microsomes stability, rat

T1 sequence (P28223 whole entry): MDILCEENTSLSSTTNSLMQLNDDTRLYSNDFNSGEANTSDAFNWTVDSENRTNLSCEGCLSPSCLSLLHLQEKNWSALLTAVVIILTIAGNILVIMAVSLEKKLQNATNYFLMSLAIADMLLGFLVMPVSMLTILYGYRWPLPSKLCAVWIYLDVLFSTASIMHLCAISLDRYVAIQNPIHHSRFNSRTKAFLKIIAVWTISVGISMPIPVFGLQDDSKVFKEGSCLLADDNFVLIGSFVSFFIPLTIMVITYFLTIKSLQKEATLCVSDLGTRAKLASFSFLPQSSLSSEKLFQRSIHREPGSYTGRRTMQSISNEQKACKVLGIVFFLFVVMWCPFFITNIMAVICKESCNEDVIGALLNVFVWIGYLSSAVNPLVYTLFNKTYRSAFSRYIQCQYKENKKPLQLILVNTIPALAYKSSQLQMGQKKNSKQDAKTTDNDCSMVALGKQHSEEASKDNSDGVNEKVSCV

## COc1ccc2c(c1)C(C[C@H]1CCCN1C)CN2 (stereo partly drawn) [(R)-I-54]
[1]
  Predicted hepatic CL: 13.52 mL/min/kg
[1]; With NADPH, 0 min
  Remaining Percentage: 100.00%
[1]; With NADPH, 30 min
  Remaining Percentage: 66.49%
[1]; With NADPH, 60 min
  Remaining Percentage: 39.38%
[1]; Without NADPH, 0 min
  Remaining Percentage: 100.00%
[1]; Without NADPH, 30 min
  Remaining Percentage: 116.22%
[1]; Without NADPH, 60 min
  Remaining Percentage: 93.51%
[1]; pooled human liver microsomes
  CLint scaled at 2 μM: 39 mL/min/kg
  half-life at 2 μM: 44.6 min
  microsomal CLint at 2 μM: 31.1 µL/min/mg
Male, C57BL/6J mice; 1 mg/kg SC
  head twitch response (mean head twitches over 1 hr): 0.7
Male, C57BL/6J mice; 3 mg/kg SC
  head twitch response (mean head twitches over 1 hr): 0.2
Male, C57BL/6J mice; 10 mg/kg SC
  head twitch response (mean head twitches over 1 hr): 1.2
Male, C57BL/6J mice; 30 mg/kg SC
  head twitch response (mean head twitches over 1 hr): 1.8
Male, C57BL/6J mice; 60 mg/kg SC
  head twitch response (mean head twitches over 1 hr): 0.8
Male, C57BL/6J mice; SC
  dose of peak head twitch response: 30 mg/kg
Male, C57BL/6J mice; SC, psilocybin 0.1-10, 5-MeO DMT 1-30, (R)-I-54 1-60 mg/kg
  head twitch response over the dose range tested: only a modest head twitch response
[2]
  Predicted hepatic CL: 70.39 mL/min/kg
[2]; With NADPH, 0 min
  Remaining Percentage: 100.00%
[2]; With NADPH, 30 min
  Remaining Percentage: 34.74%
[2]; With NADPH, 60 min
  Remaining Percentage: 10.91%
[2]; Without NADPH, 0 min
  Remaining Percentage: 100.00%
[2]; Without NADPH, 30 min
  Remaining Percentage: 98.80%
[2]; Without NADPH, 60 min
  Remaining Percentage: 91.62%
[2]; male, microsomes
  CLint scaled at 2 μM: 323 mL/min/kg
  half-life at 2 μM: 18.8 min
  microsomal CLint at 2 μM: 73.8 µL/min/mg
[3]
  EC50: 17 nM and 25 nM
[3]; 10 μM
  5-HT2A (FLIPR) RFU@10 μM: 993 RFU and 990 RFU
[4]
  Predicted hepatic CL: 49.19 mL/min/kg
[4]; With NADPH, 0 min
  Remaining Percentage: 100.00%
[4]; With NADPH, 30 min
  Remaining Percentage: 2.28%
[4]; With NADPH, 60 min
  Remaining Percentage: 0.48%
[4]; Without NADPH, 0 min
  Remaining Percentage: 100.00%
[4]; Without NADPH, 30 min
  Remaining Percentage: 103.93%
[4]; Without NADPH, 60 min
  Remaining Percentage: 97.75%
[4]; rat liver microsomes
  CLint scaled at 2 μM: 452 mL/min/kg
  half-life at 2 μM: 5.5 min
  microsomal CLint at 2 μM: 252 µL/min/mg
